Data published in PubChem BioAssay (NCI).
Where “and” joins values, the source holds several entries; their conditions need not be identical. Equal values may be shown once.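 Five compound concentrations were applied to cells in 96-well plates for 48 hours; endpoints were derived by simple linear interpolation of the resulting dose-response curve. Here, GI50 denotes the concentration required for 50% inhibition of growth. TGI marks complete inhibition of growth.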

How the values were obtained:
Experiment in all cases: growth of human tumour cells (NCI), 48 h
[1] = system: 786-0 renal
[2] = system: A498 renal
[3] = system: A549 NSCLC
[4] = system: ACHN renal
[5] = system: BT-549 breast
[6] = system: CAKI-1 renal
[7] = system: CCRF-CEM leukemia
[8] = system: COLO 205 colon
[9] = system: DU-145 prostate
[10] = system: EKVX NSCLC
[11] = system: HCC-2998 colon
[12] = system: HCT-116 colon
[13] = system: HCT-15 colon
[14] = system: HL-60(TB) leukemia
[15] = system: HOP-62 NSCLC
[16] = system: HOP-92 NSCLC
[17] = system: HS 578T breast
[18] = system: HT29 colon
[19] = system: IGROV1 ovarian
[20] = system: K-562 leukemia
[21] = system: KM12 colon
[22] = system: LOX IMVI melanoma
[23] = system: M14 melanoma
[24] = system: MALME-3M melanoma
[25] = system: MCF7 breast
[26] = system: MDA-MB-231 breast
[27] = system: MDA-MB-435
[28] = system: MDA-N
[29] = system: MOLT-4 leukemia
[30] = system: NCI-H226 lung
[31] = system: NCI-H23 lung
[32] = system: NCI-H460 lung
[33] = system: NCI-H522 lung
[34] = system: NCI/ADR-RES ovarian
[35] = system: OVCAR-3 ovarian
[36] = system: OVCAR-4 ovarian
[37] = system: OVCAR-5 ovarian
[38] = system: OVCAR-8 ovarian
[39] = system: PC-3 prostate
[40] = system: RPMI-8226 leukemia
[41] = system: RXF 393 renal
[42] = system: SF-268 CNS
[43] = system: SF-295 CNS
[44] = system: SF-539 CNS
[45] = system: SK-MEL-2 melanoma
[46] = system: SK-MEL-28 melanoma
[47] = system: SK-MEL-5 melanoma
[48] = system: SK-OV-3 ovarian
[49] = system: SN12C renal
[50] = system: SNB-19 CNS
[51] = system: SNB-75 CNS
[52] = system: SR leukemia
[53] = system: SW-620 colon
[54] = system: T-47D breast
[55] = system: TK-10 renal
[56] = system: U251 CNS
[57] = system: UACC-257 melanoma
[58] = system: UACC-62 melanoma
[59] = system: UO-31 renal

## CC(=O)c1c(-c2cccc3ccccc23)c(C#N)c(=S)n(C2OC(CO)C(O)C(O)C2O)c1C (stereo not drawn)
[1]
  TGI: > 100 µM
[2]
  TGI: > 100 µM
[3]
  TGI: > 100 µM
[4]
  TGI: > 100 µM
[5]
  TGI: > 100 µM
[6]
  TGI: > 100 µM
[7]
  TGI: > 100 µM
[8]
  TGI: > 100 µM
[9]
  TGI: > 100 µM
[10]
  TGI: 32.4 µM
[11]
  TGI: > 100 µM
[12]
  TGI: > 100 µM
[13]
  TGI: > 100 µM
[14]
  GI50: > 100 µM and 42.1 µM
  TGI: > 100 µM
[15]
  TGI: > 100 µM
[16]
  TGI: > 100 µM
[17]
  TGI: > 100 µM
[18]
  TGI: > 100 µM
[19]
  TGI: > 100 µM
[20]
  TGI: > 100 µM
[21]
  TGI: > 100 µM
[22]
  TGI: > 100 µM
[23]
  GI50: > 100 µM and 42.6 µM
  TGI: > 100 µM
[24]
  GI50: > 100 µM
  TGI: > 100 µM
[25]
  TGI: > 100 µM
[26]
  GI50: > 100 µM and 37.5 µM
  TGI: > 100 µM
[27]
  GI50: > 100 µM and 46.9 µM
  TGI: > 100 µM
[28]
  TGI: > 100 µM
[29]
  TGI: > 100 µM
[30]
  TGI: > 100 µM
[31]
  TGI: > 100 µM
[32]
  TGI: > 100 µM
[33]
  TGI: > 100 µM
[34]
  TGI: > 100 µM
[35]
  TGI: > 100 µM
[36]
  TGI: > 100 µM
[37]
  TGI: > 100 µM
[38]
  TGI: > 100 µM
[39]
  TGI: > 100 µM
[40]
  TGI: > 100 µM
[41]
  TGI: > 100 µM
[42]
  TGI: > 100 µM
[43]
  TGI: > 100 µM
[44]
  GI50: > 100 µM and 39.6 µM
  TGI: > 100 µM
[45]
  TGI: > 100 µM
[46]
  TGI: > 100 µM
[47]
  TGI: > 100 µM
[48]
  TGI: > 100 µM
[49]
  TGI: > 100 µM
[50]
  TGI: > 100 µM
[51]
  TGI: > 100 µM
[52]
  GI50: > 100 µM and 33.6 µM
  TGI: > 100 µM
[53]
  TGI: > 100 µM
[54]
  GI50: > 100 µM and 27.3 µM
  TGI: > 100 µM
[55]
  TGI: > 100 µM
[56]
  GI50: > 100 µM and 48.9 µM
  TGI: > 100 µM
[57]
  TGI: > 100 µM
[58]
  TGI: > 100 µM
[59]
  TGI: > 100 µM
